# Where two headings read alike, the source gives them in different places.
# Assay: logP determination by HPLC (EEC Directive 79/831 Annex V. A8)
# Format: physicochemical
# Experimental: logP value is determined in accordance with EEC Directive 79/831 Annex V. A8 by HPLC (gradient method, acetonitrile/0.1% aqueous phosphoric acid)
# [1] = HPLC, gradient method, acetonitrile/0.1% aqueous phosphoric acid, read-out: logP
chromatographic logP [1],Structure (SMILES),other results
5.09,"COCc1cnn2c(N3CCC(C)CC3)c(-c3ccc(F)cc3Cl)c(Cl)nc12 [Example 2, 3-methoxymethyl-5-chloro-6-(2-chloro-4-fluorophenyl)-7-(4-methylpiperidno)pyrazolo[1,5-a]pyrimidine]",–
5.7,CCC1COC(c2cnn3c(NC(C)C(C)(C)C)c(-c4ccc(F)cc4Cl)c(Cl)nc23)O1 (stereo not drawn) [Example 23],–
–,"CC1CCN(c2c(-c3ccc(F)cc3Cl)c(Cl)nc3c(C#N)cnn23)CC1 [Example 543, 3-cyano-5-chloro-6-(2-chloro-4-fluorophenyl)-7-(4-methylpiperidino)pyrazolo[1,5-a]pyrimidine]","chromatographic logP (pH=2.3, read-out: log P(pH=2.3)): 4.88"
–,"CC(Nc1c(-c2ccc(F)cc2Cl)c(Cl)nc2c(C=O)cnn12)C(C)(C)C (stereo not drawn) [Example 542, 3-formyl-5-chloro-6-(2-chloro-4-fluorophenyl)-7-(3,3-dimethylbut-2-ylamino)pyrazolo[1,5-a]pyrimidine]","chromatographic logP (HPLC (gradient method), per EEC Directive 79/831 Annex V. A8, two values, one per atropisomer, read-out: log P (atropisomers)): 4.47"
–,"CC1CCN(c2c(-c3ccc(F)cc3Cl)c(Cl)nc3c(C=O)cnn23)CC1 [Example 541, 3-formyl-5-chloro-6-(2-chloro-4-fluorophenyl)-7-(4-methylpiperidino)pyrazolo[1,5-a]pyrimidine]","chromatographic logP (HPLC, gradient of acetonitrile/0.1% aqueous phosphoric acid, pH=2.3, read-out: log P(pH=2.3)): 4.53"
3.89,"CC1CCN(c2c(-c3ccc(F)cc3Cl)c(Cl)nc3c(CO)cnn23)CC1 [Example 1, 3-hydroxymethyl-5-chloro-6-(2-chloro-4-fluorophenyl)-7-(4-methylpiperidino)pyrazolo[1,5-a]pyrimidine]",–
